Results taken from patent publication US6894047B2, “Triazine compounds useful as sorbitol dehydrogenase inhibitors” (Pfizer Inc., priority 2001, dated 2005).

Work on CC1CN(c2ncnc(CO)n2)CC(C)N1c1ncnc(-c2ccccc2)n1 (stereo not drawn) [Example 10, 1-{4-[4-(4-phenyl-[1,3,5]triazin-2-yl)-3R,5S-dimethyl-piperazin-1-yl]-[1,3,5]triazin-2-yl}-methanol] yielded a melting point of 206 to 207 °C.
In the case of CC1CN(c2ncnc(CO)n2)CC(C)N1c1ncnc(CO)n1 (stereo not drawn) [Example 11, 1-{4-[4-(4-Hydroxymethyl-[1,3,5]triazin-2-yl)-3R,5S-dimethyl-piperazin-1-yl]-[1,3,5]triazin-2-yl}-methanol], the melting point is reported as 224 to 225 °C.
In the case of COc1nc(C)nc(N2C(C)CN(c3ncnc(CO)n3)CC2C)n1 (stereo not drawn) [Example 12, 1-{4-[4-(4-methoxy-6-methyl-[1,3,5]triazin-2-yl)-3R,5S-dimethyl-piperazin-1-yl]-[1,3,5]triazin-2-yl}-methanol], the melting point is reported as 155 to 160 °C.
CC(O)c1ncnc(N2CC(C)N(c3nc(O)nc(-c4ccccc4)n3)C(C)C2)n1 (stereo not drawn) [Example 14, 1-{4-[4-(4-Hydroxy-6-phenyl-[1,3,5]triazin-2-yl)-3R,5S-dimethyl-piperazin-1-yl]-[1,3,5]triazin-2-yl}-ethanol] gave a melting point of over 275 °C.
Compound Cc1nc(O)nc(N2C(C)CN(c3ncnc(C(C)O)n3)CC2C)n1 (stereo not drawn) [Example 15, 1-{4-[4-(4-Hydroxy-3-methyl-[1,3,5]triazin-2-yl)-3R,5S-dimethyl-piperazin-1-yl]-[1,3,5]triazin-2-yl}-ethanol] has a melting point of 263 to 265 °C.
Work on CC1CN(c2ncnc(-c3ccccc3)n2)CC(C)N1c1ncnc(CO)n1 (stereo not drawn) [Example 16, 1-{4-[4-(4-Phenyl-[1,3,5]triazin-2-yl)-2R,6S-dimethyl-piperazin-1-yl]-[1,3,5]triazin-2-yl}-methanol] yielded a melting point of 197 to 198 °C.
